Legend:
[1] = Tissue distribution of intact MTfp by LCMS; format: in vivo, mouse (CD1)
[2] = tested on: in vitro bovine BBB model (primary bovine brain capillary endothelial cells supported by primary rat glial cells); assay: In vitro BBB model transcytosis assay of MTf fragments and peptides; format: in vitro ADME
[3] = tested on: neurons (NeuN), astrocytes (GFAP), microglia (TMEM), lysosomes (LAMP1), early endosomes (EEA1); format: in vivo; conditions: mouse brain sections after IV Cy5-MTfp, 3D confocal

initial rate of transport, kidney ([1]; from 30-minute concentration): 9.9 nM/min
initial rate of transport, liver ([1]; from 30-minute concentration): 7.3 nM/min
initial rate of transport into the brain ([1]; slope of time vs concentration, 0 and 30-minute time points, protocol of Bickel): ~2 nM/min
Abluminal vs. Total ([2]; T = 120, abluminal compared to initial concentration): 1.90%
Abluminal vs. Luminal ([2]; T = 120, measure of transcytosis efficiency): 2.41%
MTFp found in the early endosomes ([3]; EEA1 marker): approximately 20%
MTFp found in the lysosomes ([3]; LAMP1 marker): 40%
Sequence: DSSHAFTLDELR [MTfp]

Source: paper doi:10.1101/871186v1 (bioRxiv, 2019)
